# Legend:
# Format in all cases: cell-based
# Conditions in all cases: ratio of EC50 value of other species to human EC50 value
# rabbit GIPR = molecular target: T1, rabbit GIPR (Oryctolagus cuniculus, UniProt G1T265); test: Agonistic activity on GIPR of different species (LANCE Ultra cAMP assay): rabbit
# T1 construct: expressed in transfected cells; host or cells: CHO-K1 (transient)
# T1 sequence (G1T265 23-468): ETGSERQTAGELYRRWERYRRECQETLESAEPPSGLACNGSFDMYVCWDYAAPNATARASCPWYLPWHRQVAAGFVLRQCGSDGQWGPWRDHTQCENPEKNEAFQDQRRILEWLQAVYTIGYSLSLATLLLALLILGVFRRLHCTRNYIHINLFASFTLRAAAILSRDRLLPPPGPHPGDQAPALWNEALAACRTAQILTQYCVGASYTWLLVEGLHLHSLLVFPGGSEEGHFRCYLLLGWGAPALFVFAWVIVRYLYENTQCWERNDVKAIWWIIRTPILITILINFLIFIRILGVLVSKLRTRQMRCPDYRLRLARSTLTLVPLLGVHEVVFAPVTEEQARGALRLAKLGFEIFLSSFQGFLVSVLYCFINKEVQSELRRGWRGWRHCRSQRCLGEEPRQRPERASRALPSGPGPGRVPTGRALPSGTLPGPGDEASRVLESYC
# Experimental: (§1) CHO-K1 cells were seeded in a 6-well plate at 0.6×10^6 cells/well and incubated overnight in an incubator at a temperature of 37 °C and a carbon dioxide concentration of 5%. The next day, CHO-K1 cell media were replaced. Then two tubes A and B were prepared for each plasmid. 100 µL Opti-MEM was added to tube A, then 4 µL Lipofectamine™ 3000 was added and mixed uniformly. 100 µL Opti-MEM was firstly added to tube B, then 2 µg of one of the plasmids (human GIPR-pcDNA5 (+) plasmid, dog GIPR-pcDNA5 (+) plasmid, mouse GIPR-pcDNA5 (+) plasmid, rat GIPR-pcDNA5 (+) plasmid, rabbit GIPR-pcDNA5 (+) plasmid, monkey GIPR-pcDNA5 (+) plasmid) was added and mixed uniformly, and 4 µL P3000™ was added to tube B and mixed uniformly (the ratio of plasmid to transfection reagent was 1 µg: 2 µL). […]
# (§2) 18-20 hours after transfection, human GIPR-CHO, dog GIPR-CHO, mouse GIPR-CHO, rat GIPR-CHO, rabbit GIPR-CHO, and monkey GIPR-CHO cells were resuspended in 1×Casein Stimulation Buffer (HBSS, 5 mM HEPES, 0.5 mM IBMX, 0.1% casein, pH7.4), and seeded into a 384-well cell culture plate at 9 µL/well (cell numbers being 1000, 2000, 2000, 2000, 2000, 2000 cells/well, respectively). […] The readings at 665 nm and 620 nm were determined with a 330 nm excitation light on a microplate reader. The 665 nm/620 nm reading ratio was calculated. […]
# monkey GIPR = test: Agonistic activity on GIPR of different species (LANCE Ultra cAMP assay): monkey
# Experimental: as §1, §2
# mouse GLP-1R = molecular target: T2, mouse GLP-1R (Mus musculus, UniProt O35659); test: Agonistic activity on GLP-1R of different species (LANCE Ultra cAMP assay): mouse
# T2 construct: expressed in transfected cells
# T2 sequence (O35659 22-463): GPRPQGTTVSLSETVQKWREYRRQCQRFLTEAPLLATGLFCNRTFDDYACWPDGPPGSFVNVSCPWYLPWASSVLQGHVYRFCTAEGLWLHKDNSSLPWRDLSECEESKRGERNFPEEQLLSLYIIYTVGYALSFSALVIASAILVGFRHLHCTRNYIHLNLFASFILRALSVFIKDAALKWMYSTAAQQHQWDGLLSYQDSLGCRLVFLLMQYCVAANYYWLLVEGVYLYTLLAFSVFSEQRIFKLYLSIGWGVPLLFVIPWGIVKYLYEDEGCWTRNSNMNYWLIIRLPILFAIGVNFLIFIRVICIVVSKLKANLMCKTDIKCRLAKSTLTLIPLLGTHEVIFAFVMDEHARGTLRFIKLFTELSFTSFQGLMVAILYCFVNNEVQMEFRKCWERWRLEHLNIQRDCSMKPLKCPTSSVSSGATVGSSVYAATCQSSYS
smiles,measurement,setting,value
CC[C@H](C)[C@H](NC(=O)C(C)(C)NC(=O)[C@H](Cc1ccc(O)cc1)NC(=O)[C@H](CC(=O)O)NC(=O)[C@H](CO)NC(=O)[C@@H](NC(=O)C(C)(Cc1ccccc1)NC(=O)[C@@H](NC(=O)CNC(=O)[C@H](CCC(=O)O)NC(=O)C(C)(C)NC(=O)[C@@H](N)Cc1ccc(O)cc1)[C@@H](C)O)[C@@H](C)O)C(=O)NC(C)(C)C(=O)N[C@@H](CC(C)C)C(=O)N[C@@H](CC(=O)O)C(=O)N[C@@H](CCCCN)C(=O)N[C@@H](CCC(N)=O)C(=O)N[C@@H](C)C(=O)N[C@@H](CCC(N)=O)C(=O)N[C@@H](C)C(=O)N[C@@H](CCC(=O)O)C(=O)N[C@@H](Cc1ccccc1)C(=O)N[C@H](C(=O)N[C@@H](CCCCNC(=O)COCCOCCNC(=O)COCCOCCNC(=O)COCCOCCNC(=O)CC[C@H](NC(=O)CCCCCCCCCCCCCCCCCCCCC(=O)O)C(=O)O)C(=O)N[C@@H](Cc1c[nH]c2ccccc12)C(=O)N[C@@H](CC(C)C)C(=O)N[C@@H](CC(C)C)C(=O)N[C@@H](CCCCN)C(=O)NCC(=O)NCC(=O)N1CCC[C@H]1C(=O)N[C@@H](CO)C(=O)N[C@@H](CO)C(=O)NCC(=O)N[C@@H](C)C(=O)N1CCC[C@H]1C(=O)N1CCC[C@H]1C(=O)N1CCC[C@H]1C(=O)N[C@@H](CO)C(=O)N[C@@H](CCCCN)C(N)=O)C(C)C (stereo partly drawn) [Compound P016],GIPR EC50 ratio,rabbit GIPR,5.34
same,GIPR EC50 ratio,monkey GIPR,5.77
same,GLP-1R EC50 ratio,mouse GLP-1R,1.09
